{
  "source": "patent US12281225B2",
  "about": "“Process for preparing stable polymers containing vinylimidazole” (BASF SE, priority 2018, dated 2025)",
  "key": {"[1]": {"test_system": "Bacteria: Escherichia coli, Staphylococcus aureus, Pseudomonas aeruginosa, Pseudomonas putida, Burkholderia cepacia, Alcaligenes faecalis", "assay": "Preservation test with periodic inoculation, bacteria assessment", "type": "cell-based", "settings": "sample stored 60 d at 40° C.", "description": "(§1) Microbiological results at the start (freshly formulated, i.e. 4-week test series is started immediately) and after 60 days of storage at 40° C. (i.e. the 4-week microbial testing is started with the sample stored at 40° C. for 60 days)\n(§2) The test described below is carried out in order to ascertain the preserving effect of chemical preservatives in aqueous products and systems, the principle of the described method reflecting the efficacy of chemical preservatives with respect to pot-maintenance of aqueous products/systems under conditions corresponding to the use of laundry products/consumer products by the consumer. For this purpose, the preservatives to be tested are added in those concentrations which correspond to from the literature or to the manufacturer data from the suppliers (e.g. Thor, Speyer). In said test, our orientation was toward the upper range, which, with the exception of VI-containing polymers, had always led to excellent results in the case of aqueous polymers for laundry.\n(§3) A constant microorganism load is achieved by periodic inoculation of the test batches. Before the swabs of each batch made respectively immediately in parallel with the inoculation. The assessment is made on the basis of the microbial growth of the streaks.\n(§4) When carrying out said tests, 25 g of the polymer to be tested are weighed in each case into a vessel with a screw cap. The preservatives to be tested are each added in separate batches according to the specified use concentrations. An unpreserved product sample was used in each case for the growth control. Two days after the addition of the preservative, the samples are infected with 0.5 ml of inoculum (2% w/w). The titer of this inoculant solution is 10^9 organisms per ml. The following microorganisms are the test organisms for the preservation test:\n(§5) • Escherichia coli • Staphylococcus aureus • Pseudomonas aeruginosa • Pseudomonas putida • Burkholderia cepacia • Alcaligenes faecalis Yeast: • Candida albicans • Candida valida • Rhodotorula rura • Saccharomyces cerevisiae\n(§6) The test batches are inoculated four times altogether and once a week and are streaked on an agar plate once a week; the first streaking is done immediately before the new inoculation. Microbial growth on the agar surface is assessed after a three-day incubation at 25° C. As a precaution, negative swabs are additionally observed for a further three days and reassessed. The preserving effect is effected in a semiquantitative method via the growth of the individual streaks in accordance with the assessment from − via + to +++. The preservative result is repeatedly demonstrably robust, i.e. +++− defines the microbial growth.\n(§7) When assessing the results, it is assumed that a preservative can be regarded as good if there are batches under the above-described laboratory conditions for a period of four weeks without microbial invasion of the sample, and that, even after the fourth inoculation, no microbial attacks occur growth can be identified. • −−: no growth • −: slight growth, max. 100 colonies • 0: moderate growth, max. 400 colonies • +: uniform growth with individual colonies still easily identifiable • ++: strong growth; too many colonies to be counted, already some extensive growth"}, "[2]": {"assay": "Physical stability; visual assessment (color, turbidity, phase separation)", "type": "physicochemical", "set-up": "key: ++: no discernible change with respect to color, turbidity or phase separation; +: marginal change in color number, somewhat increased Tyndall effect but no turbidity; 0: easily discernible increase in color number and moderate turbidity−no phase separation; −: turbidity and change in color number readily discernible by visual assessment; −−: strong color change with strong turbidity and incipient phase separation", "excerpt": "Physical stability; visual assessment according to:\n++=no discernible change with respect to color, turbidity or phase separation; +=marginal change in color number, somewhat increased Tyndall effect but no turbidity; 0=easily discernible increase in color number and moderate turbidity−no phase separation; − turbidity and change in color number readily discernible by visual assessment; −− strong color change with strong turbidity and incipient phase separation.\nBefore storage, all batches could be rated ++ (no turbidity or phase separation; no influence of the biocide on the color number of the product)."}, "[3]": {"test_system": "Yeast: Candida albicans, Candida valida, Rhodotorula rura, Saccharomyces cerevisiae", "assay": "Preservation test with periodic inoculation, yeast assessment", "type": "cell-based", "settings": "for Start sample measurement, yeast assess., 4th inoculation: freshly formulated; for 60 d 40° C., yeast assess., 4th inoculation: sample stored 60 d at 40° C.", "description": "as §1, §2, §3, §4, §5, §6, §7"}},
  "data": [
    {"smiles": "CCCCCCCCCCCCCCCC[n+]1ccccc1", "note": "[CPC, cetylpyridinium chloride]", "values": [
      {"measurement": "60 d 40° C., bact. assess., 4th inoculation", "setting": "[1]; Polymer P1", "value": "− (slight growth, max. 100 colonies)"},
      {"measurement": "60 d 40° C., bact. assess., 4th inoculation", "setting": "[1]; Polymer P2", "value": "− (slight growth, max. 100 colonies)"},
      {"measurement": "60 d 40° C., bact. assess., 4th inoculation", "setting": "[1]; Polymer P3", "value": "− (slight growth, max. 100 colonies)"},
      {"measurement": "60 d 40° C., bact. assess., 4th inoculation", "setting": "[1]; Polymer P4", "value": "0 (moderate growth, max. 400 colonies)"},
      {"measurement": "60 d 40° C., bact. assess., 4th inoculation", "setting": "[1]; Polymer P5 (HP56)", "value": "− (slight growth, max. 100 colonies)"},
      {"measurement": "60 d 40° C., bact. assess., 4th inoculation", "setting": "[1]; Polymer P6", "value": "− (slight growth, max. 100 colonies)"},
      {"measurement": "60 d 40° C., bact. assess., 4th inoculation", "setting": "[1]; Polymer P7", "value": "− (slight growth, max. 100 colonies)"},
      {"measurement": "Physical stability, 60 d 40° C.*", "setting": "[2]; Polymer P1 with stabilizer", "value": "+"},
      {"measurement": "Physical stability, 60 d 40° C.*", "setting": "[2]; Polymer P2 with stabilizer", "value": "+"},
      {"measurement": "Physical stability, 60 d 40° C.*", "setting": "[2]; Polymer P3 with stabilizer", "value": "+"},
      {"measurement": "Physical stability, 60 d 40° C.*", "setting": "[2]; Polymer P4 with stabilizer", "value": "+"},
      {"measurement": "Physical stability, 60 d 40° C.*", "setting": "[2]; Polymer P5 (HP56) with stabilizer", "value": "+"},
      {"measurement": "Physical stability, 60 d 40° C.*", "setting": "[2]; Polymer P6 with stabilizer", "value": "+"},
      {"measurement": "Physical stability, 60 d 40° C.*", "setting": "[2]; Polymer P7 with stabilizer", "value": "+"},
      {"measurement": "Physical stability, 60 d 40° C.*", "setting": "[2]; Polymer P8 with stabilizer", "value": "+"},
      {"measurement": "Physical stability, 60 d 40° C.*", "setting": "[2]; Polymer P9 with stabilizer", "value": "+"},
      {"measurement": "Start sample measurement, yeast assess., 4th inoculation", "setting": "[3]; Polymer P1", "value": "− (slight growth, max. 100 colonies)"},
      {"measurement": "60 d 40° C., yeast assess., 4th inoculation", "setting": "[3]; Polymer P1", "value": "− (slight growth, max. 100 colonies)"},
      {"measurement": "Start sample measurement, yeast assess., 4th inoculation", "setting": "[3]; Polymer P2", "value": "− (slight growth, max. 100 colonies)"},
      {"measurement": "60 d 40° C., yeast assess., 4th inoculation", "setting": "[3]; Polymer P2", "value": "− (slight growth, max. 100 colonies)"},
      {"measurement": "Start sample measurement, yeast assess., 4th inoculation", "setting": "[3]; Polymer P3", "value": "− (slight growth, max. 100 colonies)"},
      {"measurement": "60 d 40° C., yeast assess., 4th inoculation", "setting": "[3]; Polymer P3", "value": "0 (moderate growth, max. 400 colonies)"},
      {"measurement": "Start sample measurement, yeast assess., 4th inoculation", "setting": "[3]; Polymer P4", "value": "− (slight growth, max. 100 colonies)"},
      {"measurement": "60 d 40° C., yeast assess., 4th inoculation", "setting": "[3]; Polymer P4", "value": "0 (moderate growth, max. 400 colonies)"},
      {"measurement": "Start sample measurement, yeast assess., 4th inoculation", "setting": "[3]; Polymer P5 (HP56)", "value": "− (slight growth, max. 100 colonies)"},
      {"measurement": "60 d 40° C., yeast assess., 4th inoculation", "setting": "[3]; Polymer P5 (HP56)", "value": "0 (moderate growth, max. 400 colonies)"},
      {"measurement": "Start sample measurement, yeast assess., 4th inoculation", "setting": "[3]; Polymer P6", "value": "− (slight growth, max. 100 colonies)"},
      {"measurement": "60 d 40° C., yeast assess., 4th inoculation", "setting": "[3]; Polymer P6", "value": "0 (moderate growth, max. 400 colonies)"},
      {"measurement": "Start sample measurement, yeast assess., 4th inoculation", "setting": "[3]; Polymer P7", "value": "− (slight growth, max. 100 colonies)"},
      {"measurement": "60 d 40° C., yeast assess., 4th inoculation", "setting": "[3]; Polymer P7", "value": "0 (moderate growth, max. 400 colonies)"},
      {"measurement": "Start sample measurement, yeast assess., 4th inoculation", "setting": "[3]; Polymer P8", "value": "− (slight growth, max. 100 colonies)"},
      {"measurement": "60 d 40° C., yeast assess., 4th inoculation", "setting": "[3]; Polymer P8", "value": "0 (moderate growth, max. 400 colonies)"},
      {"measurement": "Start sample measurement, yeast assess., 4th inoculation", "setting": "[3]; Polymer P9", "value": "− (slight growth, max. 100 colonies)"},
      {"measurement": "60 d 40° C., yeast assess., 4th inoculation", "setting": "[3]; Polymer P9", "value": "− (slight growth, max. 100 colonies)"}
    ]}
  ]
}
